Reference: PMC11272821, “Mechanistic safety assessment via multi-omic characterisation of systemic pathway perturbations following in vivo MAT2A inhibition” (Archives of Toxicology, 2024)
pIC50, pKi: −log10 of the molar value.

Legend:
[1] = target: hERG (Homo sapiens, UniProt Q12809); assay: hERG safety assay; format: cell-based; conditions: Full curve
Excerpt: Full curve IC50 (µM) for hERG (human ether-a-go-go-related gene) and the cardiac ion channel panel (sodium and potassium ion channels; Nav1.5, IKs, Kv4.3), along with the L-type Calcium channel (Cav-1.2 Ver; verapamil, DIL; diltiazem), HepG2 C3A 3D spheroids, HepG2 C3A (2D cultures in glucose or galactose media), and THP1 cytotoxicity.

[2] = target: T1, Glucocorticoid Receptor NR3C1 (Homo sapiens, UniProt P04150); assay: Radioligand binding assay
T1 construct: Eurofins
Description: (§1) Secondary pharmacology assays were performed at Eurofins using standard experimental techniques against a total of 86 targets across a broad pharmacological space. Assay details along with experimental protocols are described at https://www.eurofinsdiscoveryservices.com. […] Assays measuring substrate turnover or phosphorylation by isolated proteins were used for kinase and enzyme targets, allowing direct determination of the mode of action of the compounds. […] Assays were run in eight points concentration response mode with half log dilutions and IC50, EC50 or Ki (Cheng and Prusoff [1973]) values determined.

[3] = target: T2, Noradrenaline Transporter (NET) (Homo sapiens, UniProt P23975); assay: Radioligand binding assay
T2 construct: Eurofins
Description: as §1

[4] = target: T3, 5-HT4 receptor (Homo sapiens, UniProt Q13639); assay: Radioligand binding assay
T3 construct: Eurofins
T3 sequence (Q13639 whole entry): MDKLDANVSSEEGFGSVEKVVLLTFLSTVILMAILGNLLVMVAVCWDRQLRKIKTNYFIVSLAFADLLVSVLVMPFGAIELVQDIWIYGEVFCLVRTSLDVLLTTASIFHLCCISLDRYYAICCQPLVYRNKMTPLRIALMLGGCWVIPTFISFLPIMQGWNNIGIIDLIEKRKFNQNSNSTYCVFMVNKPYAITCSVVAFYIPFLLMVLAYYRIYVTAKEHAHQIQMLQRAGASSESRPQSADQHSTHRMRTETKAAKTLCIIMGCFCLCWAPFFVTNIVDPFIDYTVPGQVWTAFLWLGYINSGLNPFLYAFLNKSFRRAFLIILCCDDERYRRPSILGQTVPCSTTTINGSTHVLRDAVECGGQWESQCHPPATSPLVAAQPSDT
Description: as §1

[5] = target: T4, α1A adrenoceptor (Homo sapiens, UniProt P35348); assay: Radioligand binding assay
T4 construct: Eurofins
Description: as §1

[6] = target: T5, A2A adenosine receptor (Homo sapiens, UniProt P29274); assay: Radioligand binding assay
T5 construct: Eurofins
T5 sequence (P29274 whole entry): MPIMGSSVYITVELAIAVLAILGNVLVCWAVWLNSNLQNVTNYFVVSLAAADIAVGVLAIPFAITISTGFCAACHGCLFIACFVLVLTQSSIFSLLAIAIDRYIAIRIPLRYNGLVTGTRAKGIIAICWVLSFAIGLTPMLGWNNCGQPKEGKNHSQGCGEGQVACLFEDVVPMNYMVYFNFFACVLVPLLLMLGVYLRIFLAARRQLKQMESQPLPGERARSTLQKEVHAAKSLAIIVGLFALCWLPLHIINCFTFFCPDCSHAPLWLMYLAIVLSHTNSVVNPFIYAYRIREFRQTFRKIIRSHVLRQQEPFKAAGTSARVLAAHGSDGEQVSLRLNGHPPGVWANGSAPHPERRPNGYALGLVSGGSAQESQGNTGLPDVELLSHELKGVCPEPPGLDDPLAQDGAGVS
Description: as §1

[7] = target: T6, D1 dopamine receptor (Homo sapiens, UniProt P21728); assay: Radioligand binding assay
T6 construct: Eurofins
Description: as §1

[8] = target: T7, Dopamine transporter (DAT) (Homo sapiens, UniProt Q01959); assay: Radioligand binding assay
T7 construct: Eurofins
Description: as §1

[9] = target: T8, δ opioid Receptor (Homo sapiens, UniProt P41143); assay: Radioligand binding assay
T8 construct: Eurofins
Description: as §1

[10] = target: T9, Peroxisome proliferator-activated receptor-γ (Homo sapiens, UniProt P37231); assay: Radioligand binding assay
T9 construct: Eurofins
T9 sequence (P37231 whole entry): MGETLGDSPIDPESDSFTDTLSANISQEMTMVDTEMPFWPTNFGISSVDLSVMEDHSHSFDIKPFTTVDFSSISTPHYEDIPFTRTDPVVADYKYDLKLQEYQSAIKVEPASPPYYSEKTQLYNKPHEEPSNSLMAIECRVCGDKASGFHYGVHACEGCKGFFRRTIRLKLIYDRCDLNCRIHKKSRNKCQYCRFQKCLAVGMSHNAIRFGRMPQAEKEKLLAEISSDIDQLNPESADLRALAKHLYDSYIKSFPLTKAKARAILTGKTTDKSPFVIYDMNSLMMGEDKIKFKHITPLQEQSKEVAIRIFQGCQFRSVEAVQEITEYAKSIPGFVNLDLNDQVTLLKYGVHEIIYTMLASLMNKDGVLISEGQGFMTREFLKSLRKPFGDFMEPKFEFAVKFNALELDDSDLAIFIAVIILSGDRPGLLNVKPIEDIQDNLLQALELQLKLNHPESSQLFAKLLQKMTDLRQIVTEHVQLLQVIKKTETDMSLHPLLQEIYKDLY
Description: as §1

[11] = target: T10, SST4 somatostatin receptor (Homo sapiens, UniProt P31391); assay: Radioligand binding assay
T10 construct: Eurofins
T10 sequence (P31391 whole entry): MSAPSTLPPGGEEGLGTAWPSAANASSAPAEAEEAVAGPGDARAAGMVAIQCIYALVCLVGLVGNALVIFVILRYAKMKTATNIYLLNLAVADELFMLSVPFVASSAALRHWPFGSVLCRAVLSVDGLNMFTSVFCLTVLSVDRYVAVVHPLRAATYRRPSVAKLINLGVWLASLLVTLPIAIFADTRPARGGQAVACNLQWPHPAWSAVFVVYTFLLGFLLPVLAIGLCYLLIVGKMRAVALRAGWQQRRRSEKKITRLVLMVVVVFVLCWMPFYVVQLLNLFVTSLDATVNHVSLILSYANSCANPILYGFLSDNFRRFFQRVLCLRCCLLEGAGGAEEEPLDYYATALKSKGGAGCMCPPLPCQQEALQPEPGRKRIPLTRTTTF
Description: as §1

[12] = target: T11, κ opioid receptor (Homo sapiens, UniProt P41145); assay: Radioligand binding assay
T11 construct: Eurofins
T11 sequence (P41145 whole entry): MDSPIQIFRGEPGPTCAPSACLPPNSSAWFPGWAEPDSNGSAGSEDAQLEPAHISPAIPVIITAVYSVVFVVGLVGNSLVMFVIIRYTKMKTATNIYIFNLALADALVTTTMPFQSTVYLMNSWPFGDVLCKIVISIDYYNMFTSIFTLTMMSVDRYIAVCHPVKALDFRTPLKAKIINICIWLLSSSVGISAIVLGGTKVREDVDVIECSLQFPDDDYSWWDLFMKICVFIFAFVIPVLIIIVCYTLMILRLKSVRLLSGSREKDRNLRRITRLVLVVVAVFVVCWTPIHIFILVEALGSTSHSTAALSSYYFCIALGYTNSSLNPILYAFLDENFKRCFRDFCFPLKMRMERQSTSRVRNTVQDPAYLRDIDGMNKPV
Description: as §1

[13] = target: T12, CB1 cannabinoid receptor (Homo sapiens, UniProt P21554); assay: Radioligand binding assay
T12 construct: purchased Eurofins
T12 sequence (P21554 whole entry): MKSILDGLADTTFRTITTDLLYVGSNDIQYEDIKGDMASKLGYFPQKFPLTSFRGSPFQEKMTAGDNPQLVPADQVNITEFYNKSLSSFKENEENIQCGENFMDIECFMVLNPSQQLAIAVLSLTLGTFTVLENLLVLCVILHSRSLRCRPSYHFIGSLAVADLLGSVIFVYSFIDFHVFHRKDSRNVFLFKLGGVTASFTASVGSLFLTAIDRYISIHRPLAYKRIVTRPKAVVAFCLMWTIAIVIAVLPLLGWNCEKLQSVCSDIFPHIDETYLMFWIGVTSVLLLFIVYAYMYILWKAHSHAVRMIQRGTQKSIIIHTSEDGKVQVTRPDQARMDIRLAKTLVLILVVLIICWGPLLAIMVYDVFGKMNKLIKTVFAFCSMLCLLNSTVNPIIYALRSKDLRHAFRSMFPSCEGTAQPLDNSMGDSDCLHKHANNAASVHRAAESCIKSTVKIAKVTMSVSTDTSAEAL
Description: as §1

[14] = target: T13, α1B adrenoceptor (Homo sapiens, UniProt P35368); assay: Radioligand binding assay
T13 construct: Eurofins
T13 sequence (P35368 1-520): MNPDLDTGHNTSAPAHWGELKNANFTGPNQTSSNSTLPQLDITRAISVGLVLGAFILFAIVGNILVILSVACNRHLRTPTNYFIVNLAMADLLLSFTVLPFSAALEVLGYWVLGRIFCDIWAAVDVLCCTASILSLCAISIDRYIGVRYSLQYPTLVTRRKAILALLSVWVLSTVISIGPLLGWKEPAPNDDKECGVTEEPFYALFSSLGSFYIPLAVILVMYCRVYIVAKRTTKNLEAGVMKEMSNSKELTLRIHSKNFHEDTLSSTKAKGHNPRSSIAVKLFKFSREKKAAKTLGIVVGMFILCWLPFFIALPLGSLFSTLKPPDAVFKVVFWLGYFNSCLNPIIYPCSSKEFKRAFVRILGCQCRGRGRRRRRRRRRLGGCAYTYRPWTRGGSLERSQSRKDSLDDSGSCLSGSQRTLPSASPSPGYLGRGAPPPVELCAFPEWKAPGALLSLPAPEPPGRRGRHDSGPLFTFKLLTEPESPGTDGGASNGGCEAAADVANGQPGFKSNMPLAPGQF
Description: as §1

[15] = target: T14, M2 muscarinic receptor (Homo sapiens, UniProt P08172); assay: Radioligand binding assay
T14 construct: Eurofins
T14 sequence (P08172 1-466): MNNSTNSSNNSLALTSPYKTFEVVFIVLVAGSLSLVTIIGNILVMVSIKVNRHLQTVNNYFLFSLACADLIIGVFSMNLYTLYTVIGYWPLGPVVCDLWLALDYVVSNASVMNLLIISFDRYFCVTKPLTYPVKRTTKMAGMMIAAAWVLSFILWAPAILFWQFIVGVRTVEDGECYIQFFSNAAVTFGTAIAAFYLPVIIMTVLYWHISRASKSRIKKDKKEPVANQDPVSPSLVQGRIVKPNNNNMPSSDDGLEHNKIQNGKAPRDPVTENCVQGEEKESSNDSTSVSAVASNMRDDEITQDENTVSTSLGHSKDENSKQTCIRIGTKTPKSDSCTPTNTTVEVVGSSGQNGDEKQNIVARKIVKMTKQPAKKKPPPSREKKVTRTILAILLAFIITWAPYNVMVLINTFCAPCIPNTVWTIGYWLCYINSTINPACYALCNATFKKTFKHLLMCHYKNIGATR
Description: as §1

[16] = target: T15, AT1 angiotensin receptor (Homo sapiens, UniProt P30556); assay: Radioligand binding assay
T15 construct: Eurofins
Description: as §1

[17] = target: T16, M1 muscarinic receptor (Homo sapiens, UniProt P11229); assay: Radioligand binding assay
T16 construct: Eurofins
Description: as §1

[18] = target: T17, NK1 neurokinin receptor (Homo sapiens, UniProt P25103); assay: Radioligand binding assay
T17 construct: Eurofins
Description: as §1

[19] = target: T18, CCK1 cholecystokinin receptor (Homo sapiens, UniProt P32238); assay: Radioligand binding assay
T18 construct: Eurofins
Description: as §1

[20] = target: T19, 5-HT7 receptor (Homo sapiens, UniProt P34969); assay: Radioligand binding assay
T19 construct: Eurofins
T19 sequence (P34969 whole entry): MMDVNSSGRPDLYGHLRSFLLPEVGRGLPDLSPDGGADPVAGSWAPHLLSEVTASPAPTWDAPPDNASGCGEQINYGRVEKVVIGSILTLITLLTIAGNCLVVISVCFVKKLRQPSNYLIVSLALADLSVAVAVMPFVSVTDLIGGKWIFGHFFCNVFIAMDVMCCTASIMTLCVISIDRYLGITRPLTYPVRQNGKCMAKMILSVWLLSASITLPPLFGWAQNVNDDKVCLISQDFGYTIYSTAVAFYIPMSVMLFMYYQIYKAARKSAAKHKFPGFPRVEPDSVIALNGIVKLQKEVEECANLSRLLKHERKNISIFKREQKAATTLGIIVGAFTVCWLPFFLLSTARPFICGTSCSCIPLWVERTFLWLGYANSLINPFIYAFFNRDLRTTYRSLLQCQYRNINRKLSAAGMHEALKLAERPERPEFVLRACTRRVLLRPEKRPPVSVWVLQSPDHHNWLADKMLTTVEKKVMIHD
Description: as §1

[21] = target: T20, 5-HT2B receptor (Homo sapiens, UniProt P41595); assay: Radioligand binding assay
T20 construct: Eurofins
T20 sequence (P41595 whole entry): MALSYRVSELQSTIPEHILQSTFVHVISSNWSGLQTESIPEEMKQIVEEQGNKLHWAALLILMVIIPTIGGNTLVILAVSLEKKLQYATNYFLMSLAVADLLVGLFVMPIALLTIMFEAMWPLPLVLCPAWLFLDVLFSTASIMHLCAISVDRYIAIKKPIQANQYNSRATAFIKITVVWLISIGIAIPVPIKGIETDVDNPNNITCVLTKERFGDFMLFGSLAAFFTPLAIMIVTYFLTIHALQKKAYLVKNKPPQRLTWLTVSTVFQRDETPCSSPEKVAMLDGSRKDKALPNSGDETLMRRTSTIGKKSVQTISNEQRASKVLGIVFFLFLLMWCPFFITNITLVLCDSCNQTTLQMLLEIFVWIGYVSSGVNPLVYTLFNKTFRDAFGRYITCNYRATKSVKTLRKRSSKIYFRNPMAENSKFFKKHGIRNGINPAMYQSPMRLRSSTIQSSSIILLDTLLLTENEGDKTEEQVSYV
Description: as §1

[22] = target: T21, A1 adenosine receptor (Homo sapiens, UniProt P30542); assay: Radioligand binding assay
T21 construct: purchased Eurofins
T21 sequence (P30542 whole entry): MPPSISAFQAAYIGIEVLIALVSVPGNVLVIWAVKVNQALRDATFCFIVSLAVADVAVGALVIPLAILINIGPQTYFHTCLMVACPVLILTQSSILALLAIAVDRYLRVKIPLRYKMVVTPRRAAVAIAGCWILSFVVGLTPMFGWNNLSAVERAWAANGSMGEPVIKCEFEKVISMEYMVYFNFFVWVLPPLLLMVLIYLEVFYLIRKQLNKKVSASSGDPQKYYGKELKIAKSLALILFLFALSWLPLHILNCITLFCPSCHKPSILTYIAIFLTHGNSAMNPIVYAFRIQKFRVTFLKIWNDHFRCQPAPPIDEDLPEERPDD
Description: as §1

[23] = target: T22, Adenosine Transporter (Homo sapiens, UniProt Q99808); assay: Functional assay; format: cell-based
T22 construct: Eurofins
Description: as §1

hERG, sequence (Q12809 whole entry): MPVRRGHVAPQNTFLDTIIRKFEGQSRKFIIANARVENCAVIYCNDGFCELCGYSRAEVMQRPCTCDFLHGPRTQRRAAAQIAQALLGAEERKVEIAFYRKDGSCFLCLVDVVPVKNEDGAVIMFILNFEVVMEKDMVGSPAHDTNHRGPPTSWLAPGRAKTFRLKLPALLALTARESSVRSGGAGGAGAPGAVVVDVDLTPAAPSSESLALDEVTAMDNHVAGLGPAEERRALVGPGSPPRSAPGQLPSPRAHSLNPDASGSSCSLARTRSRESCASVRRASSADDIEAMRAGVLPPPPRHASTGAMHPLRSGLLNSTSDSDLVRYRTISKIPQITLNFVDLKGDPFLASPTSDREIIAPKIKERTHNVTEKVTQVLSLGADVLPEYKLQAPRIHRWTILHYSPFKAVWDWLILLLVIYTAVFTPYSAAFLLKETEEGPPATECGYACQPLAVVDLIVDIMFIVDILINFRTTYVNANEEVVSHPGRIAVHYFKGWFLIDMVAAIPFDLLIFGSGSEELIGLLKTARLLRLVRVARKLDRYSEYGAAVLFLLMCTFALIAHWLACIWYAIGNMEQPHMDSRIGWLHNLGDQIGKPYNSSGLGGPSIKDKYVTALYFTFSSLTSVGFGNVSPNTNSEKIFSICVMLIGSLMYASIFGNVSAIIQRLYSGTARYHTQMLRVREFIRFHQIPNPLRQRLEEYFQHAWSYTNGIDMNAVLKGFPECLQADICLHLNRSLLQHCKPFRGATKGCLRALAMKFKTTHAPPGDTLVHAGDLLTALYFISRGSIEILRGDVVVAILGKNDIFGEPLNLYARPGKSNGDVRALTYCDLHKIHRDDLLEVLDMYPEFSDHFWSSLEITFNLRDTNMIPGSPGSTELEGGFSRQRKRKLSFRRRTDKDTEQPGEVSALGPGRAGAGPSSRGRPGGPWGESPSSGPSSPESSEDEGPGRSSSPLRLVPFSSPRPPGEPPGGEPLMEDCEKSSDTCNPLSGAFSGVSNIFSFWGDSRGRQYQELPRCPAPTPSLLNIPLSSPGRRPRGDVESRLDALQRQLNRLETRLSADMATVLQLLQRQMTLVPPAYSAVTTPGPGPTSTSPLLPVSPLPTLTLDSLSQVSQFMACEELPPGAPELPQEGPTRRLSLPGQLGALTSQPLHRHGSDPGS

Cn1cc2cc(-c3cc4[nH]nc(C5CC5)c4n(-c4ccc(OC(F)F)cc4)c3=O)ccc2n1 [AZ’9567]
pIC50 [1]: 4.48 | pKi [2]: 4.61 | pKi [3]: 4.48 | pKi [4]: 4.99 | pKi [5]: 4.90 | pKi [6]: 5.66 | pKi [7]: 4.46 | pKi [8]: 4.65 | pKi [9]: 4.89 | pKi [10]: 4.48 | pKi [11]: 4.30 | pKi [12]: 5.22 | pKi [13]: 4.52 | pKi [14]: 4.54 | pKi [15]: 5.74 | pKi [16]: 4.90 | pKi [17]: 4.16 | pKi [18]: 4.99 | pKi [19]: 4.60 | pKi [20]: 5.54 | pKi [21]: 4.49 | pKi [22]: 5.59 | Pharmacological mode of action [23]: Antagonist
